# Molecular target: T1, human H4 receptor (Homo sapiens, UniProt Q9H3N8)
# T1 construct: expressed in transfected cells
# Test: [3H]Histamine binding on membranes of CHO cells stably expressing human H4 receptor
# Procedure, shortened: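 Filter-bound counts (liquid scintillation) gave H4 binding. Incubation used 20 μg membrane protein/well in Tris/HCl 50 mM plus EDTA 0.5 mM at pH 7.4, and 10 μM JNJ 7777120 set nonspecific binding. Filtration on GF/B pretreated with polyethyleneimine stopped the reaction.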
row,Ki or IC50 activity class,SMILES
1,< 30 nM,"CN1CCC(OC(c2cccc(C#CCCCCN)c2)c2nc3ccccc3[nH]2)CC1 (stereo not drawn) [Example 337, 6-{3-[(1H-benzimidazol-2-yl)(1-methylpiperidin-4-yloxy)methyl]phenyl}hex-5-ynylamine]"
2,< 30 nM,"CN1CCC(OC(c2cccc(C#CCCCNC(=N)N)c2)c2nc3ccccc3s2)CC1 (stereo not drawn) [Example 340, N-(5-{3-[benzothiazol-2-yl(1-methylpiperidin-4-yloxy)methyl]phenyl}pent-4-ynyl)guanidine]"
3,< 300 nM,"CN1CCC(OC(c2cccc(C#CCCCCNC(=N)N)c2)c2nc3ccccc3s2)CC1 (stereo not drawn) [Example 342, N-(6-{3-[benzothiazol-2-yl(1-methylpiperidin-4-yloxy)methyl]phenyl}hex-5-ynyl)guanidine]"
4,< 300 nM,"CN1CCC(OC(c2cccc(CCCCCCN)c2)c2nc3ccccc3[nH]2)CC1 (stereo not drawn) [Example 344, 6-{3-[(1H-benzimidazol-2-yl)(1-methylpiperidin-4-yloxy)methyl]phenyl}hexylamine]"
5,< 300 nM,"CN1CCC(OC(c2cccc(C#CCCCCNC(=N)N)c2)c2nc3ccccc3[nH]2)CC1 (stereo not drawn) [Example 346, N-(6-{3-[(1H-benzimidazol-2-yl)(1-methylpiperidin-4-yloxy)methyl]phenyl}hex-5-ynyl)guanidine]"
6,< 1000 nM,"CC(C)NC(=S)NCCSc1cccc(C(OC2CCN(C)CC2)c2nc3ccccc3[nH]2)c1 (stereo not drawn) [Example 347, 1-(2-{3-[(1H-benzimidazol-2-yl)(1-methylpiperidin-4-yloxy)methyl]phenylsulfanyl}ethyl)-3-isopropylthiourea]"
7,< 1000 nM,"CN1CCC(OC(c2cccc(OCCCn3cncn3)c2)c2nc3ccccc3s2)CC1 (stereo not drawn) [Example 348, 2-{(1-methylpiperidin-4-yloxy)[3-(3-[1,2,4]triazol-1-yl-propoxy)phenyl]methyl}benzothiazole]"
8,< 1000 nM,"CN1CCC(OC(c2cccc(OCCCN3CCOCC3)c2)c2nc3ccccc3s2)CC1 (stereo not drawn) [Example 350, 2-{(1-methylpiperidin-4-yloxy)[3-(3-morpholin-4-yl-propoxy)phenyl]methyl}benzothiazole]"
9,< 1000 nM,"CN1CCC(OC(c2cccc(OCCCN3CCN(C(=O)OC(C)(C)C)CC3)c2)c2nc3ccccc3s2)CC1 (stereo not drawn) [Example 351, 4-(3-{3-[benzothiazol-2-yl(1-methylpiperidin-4-yloxy)methyl]phenoxy}propyl)piperazine-1-carboxylic acid tert-butyl ester]"
10,< 300 nM,"CN1CCC(OC(c2cccc(C3=CCN(C(=N)N)CC3)c2)c2nc3ccccc3[nH]2)CC1 (stereo not drawn) [Example 353, 4-{3-[(1H-benzimidazol-2-yl)(1-methylpiperidin-4-yloxy)methyl]phenyl}-3,6-dihydro-2H-pyridine-1-carboxamidine]"
11,< 30 nM,"CN1CCC(OC(c2cccc(OCCCl)c2)c2nc3ccccc3s2)CC1 (stereo not drawn) [Example 354, 2-[[3-(2-Chloroethoxy)phenyl](1-methylpiperidin-4-yloxy)methyl]benzothiazole]"
12,< 300 nM,"CN1CCC(OC(c2cccc(CCCCCCNC(=N)N)c2)c2nc3ccccc3[nH]2)CC1 (stereo not drawn) [Example 355, N-(6-{3-[(1H-benzimidazol-2-yl)(1-methylpiperidin-4-yloxy)methyl]phenyl}hexyl)guanidine]"
13,< 1000 nM,"CN1CCC(OC(c2cccc(OCCN3CCCCC3)c2)c2nc3ccccc3[nH]2)CC1 (stereo not drawn) [Example 356, 2-{(1-methylpiperidin-4-yloxy)[3-(2-piperidin-1-yl-ethoxy)phenyl]methyl}-1H-benzimidazole]"
14,< 30 nM,"CN1CCC(OC(c2cccc(C#CCCCNC(=N)N)c2)c2nc3ccccc3[nH]2)CC1 (stereo not drawn) [Example 358, N-(5-{3-[(1H-benzimidazol-2-yl)(1-methylpiperidin-4-yloxy)methyl]phenyl}pent-4-ynyl)guanidine]"
15,< 30 nM,"CN1CCC(OC(c2cccc(SCCCCN)c2)c2nc3ccccc3s2)CC1 (stereo not drawn) [Example 359, 4-{3-[benzothiazol-2-yl(1-methylpiperidin-4-yloxy)methyl]phenylsulfanyl}butylamine]"
16,< 1000 nM,"CN1CCC(OC(c2cccc(OCCCN3CCN(C(=O)OC(C)(C)C)CC3)c2)c2nc3ccccc3[nH]2)CC1 (stereo not drawn) [Example 360, 4-(3-{3-[(1H-benzimidazol-2-yl)(1-methylpiperidin-4-yloxy)methyl]phenoxy}propyl)piperazine-1-carboxylic acid tert-butyl ester]"
17,< 1000 nM,"CN1CCC(OC(c2cccc(OCCNCC(=O)OC(C)(C)C)c2)c2nc3ccccc3[nH]2)CC1 (stereo not drawn) [Example 361, (2-{3-[(1H-benzimidazol-2-yl)(1-methylpiperidin-4-yloxy)methyl]phenoxy}ethylamino)acetic acid tert-butyl ester]"
18,< 300 nM,"CN1CCC(OC(c2cccc(CCCCCCNC(=N)N)c2)c2nc3ccccc3s2)CC1 (stereo not drawn) [Example 363, N-(6-{3-[benzothiazol-2-yl(1-methylpiperidin-4-yloxy)methyl]phenyl}hexyl)guanidine]"
19,< 300 nM,"CN1CCC(OC(c2cccc(CCCCCNC(=N)N)c2)c2nc3ccccc3s2)CC1 (stereo not drawn) [Example 365, N-(5-{3-[benzothiazol-2-yl(1-methylpiperidin-4-yloxy)methyl]phenyl}pentyl)guanidine]"
20,< 30 nM,"CN1CCC(OC(c2cccc(CCCCN)c2)c2nc3ccccc3s2)CC1 (stereo not drawn) [Example 366, 4-{3-[benzothiazol-2-yl(1-methylpiperidin-4-yloxy)methyl]phenyl}butylamine]"
21,< 1000 nM,"CN1CCC(OC(c2cccc(OCCN3CCN(C(=O)OC(C)(C)C)CC3)c2)c2nc3ccccc3[nH]2)CC1 (stereo not drawn) [Example 369, 4-(2-{3-[(1H-benzimidazol-2-yl)(1-methylpiperidin-4-yloxy)methyl]phenoxy}ethyl)piperazine-1-carboxylic acid tert-butyl ester]"
22,< 1000 nM,"CN1CCC(OC(c2cccc(OCCNCC(=O)OC(C)(C)C)c2)c2nc3ccccc3s2)CC1 (stereo not drawn) [Example 370, (2-{3-[benzothiazol-2-yl(1-methylpiperidin-4-yloxy)methyl]phenoxy}ethylamino)acetic acid tert-butyl ester]"
23,< 30 nM,"CN1CCC(OC(c2cccc(OCCCCCN)c2)c2nc3ccccc3s2)CC1 (stereo not drawn) [Example 371, 5-{3-[benzothiazol-2-yl(1-methylpiperidin-4-yloxy)methyl]phenoxy}pentylamine]"
24,< 30 nM,"CN1CCC(OC(c2cccc(C#CCCNC(=N)N)c2)c2nc3ccccc3s2)CC1 (stereo not drawn) [Example 372, N-(4-{3-[benzothiazol-2-yl(1-methylpiperidin-4-yloxy)methyl]phenyl}but-3-ynyl)guanidine]"
25,< 30 nM,"CN1CCC(OC(c2cccc(C#CCNC(=N)N)c2)c2nc3ccccc3s2)CC1 (stereo not drawn) [Example 373, N-(3-{3-[benzothiazol-2-yl(1-methylpiperidin-4-yloxy)methyl]phenyl}prop-2-ynyl)guanidine]"
26,< 30 nM,"CN1CCC(OC(c2cccc(CCCCNC(=N)N)c2)c2nc3ccccc3s2)CC1 (stereo not drawn) [Example 374, N-(4-{3-[benzothiazol-2-yl(1-methylpiperidin-4-yloxy)methyl]phenyl}butyl)guanidine]"
27,< 1000 nM,"CN1CCC(OC(c2cccc(OCCCCCNCC(=O)OC(C)(C)C)c2)c2nc3ccccc3s2)CC1 (stereo not drawn) [Example 375, (5-{3-[benzothiazol-2-yl(1-methylpiperidin-4-yloxy)methyl]phenoxy}pentylamino)acetic acid tert-butyl ester]"
28,< 1000 nM,"CN1CCC(OC(c2cccc(C#CC3CCNCC3)c2)c2nc3ccccc3[nH]2)CC1 (stereo not drawn) [Example 376, 2-[(1-methylpiperidin-4-yloxy)(3-piperidin-4-ylethynyl-phenyl)methyl]-1H-benzimidazole]"
29,< 300 nM,"CN1CCC(OC(c2cccc(OCC3CCNCC3)c2)c2nc3ccccc3s2)CC1 (stereo not drawn) [Example 377, 2-{(1-methylpiperidin-4-yloxy)[3-(piperidin-4-ylmethoxy)phenyl]methyl}benzothiazole]"
30,< 1000 nM,"CN1CCC(OC(c2cccc(OCC3CCCNC3)c2)c2nc3ccccc3s2)CC1 (stereo not drawn) [Example 378, 2-{(1-methylpiperidin-4-yloxy)[3-(piperidin-3-ylmethoxy)phenyl]methyl}benzothiazole]"

row,SMILES,Ki or IC50 activity class
1,"CN1CCC(OC(c2cccc(OCCCCN3CCCCC3)c2)c2nc3ccccc3[nH]2)CC1 (stereo not drawn) [Example 333, 2-{(1-methylpiperidin-4-yloxy)[3-(4-piperidin-1-yl-butoxy)phenyl]methyl}-1H-benzimidazole]",< 300 nM
2,"CN1CCC(OC(c2cccc(CCCCCNC(=N)NC(=O)OC(C)(C)C)c2)c2nc3ccccc3[nH]2)CC1 (stereo not drawn) [Example 335, N-tert-butoxycarbonyl-N′-(-{3-[(1H-benzimidazol-2-yl)(1-methylpiperidin-4-yloxy)methyl]phenyl}pentyl)guanidine]",< 300 nM
3,"CN1CCC(OC(c2cccc(C#CCNC(=N)NC(=O)OC(C)(C)C)c2)c2nc3ccccc3[nH]2)CC1 (stereo not drawn) [Example 336, N-tert-butoxycarbonyl-N′-(3-{3-[(1H-benzimidazol-2-yl)(1-methylpiperidin-4-yloxy)methyl]phenyl}prop-2-ynyl)guanidine]",< 300 nM
4,"CN1CCC(OC(c2cccc(C3=CCNCC3)c2)c2nc3ccccc3[nH]2)CC1 (stereo not drawn) [Example 338, 2-{(1-methylpiperidin-4-yloxy)[3-(1,2,3,6-tetrahydro-pyridin-4-yl)phenyl]methyl}-1H-benzimidazole]",< 300 nM
5,"CN1CCC(OC(c2cccc(C#CCCCCNC(=N)NC(=O)OC(C)(C)C)c2)c2nc3ccccc3[nH]2)CC1 (stereo not drawn) [Example 345, N-tert-butoxycarbonyl-N′-(6-{3-[(1H-benzimidazol-2-yl)(1-methylpiperidin-4-yloxy)methyl]phenyl}hex-5-ynyl)guanidine]",< 300 nM
6,"CN1CCC(OC(c2cccc(C#CCCCNC(=N)NC(=O)OC(C)(C)C)c2)c2nc3ccccc3[nH]2)CC1 (stereo not drawn) [Example 357, N-tert-butoxycarbonyl-N′-(5-{3-[(1H-benzimidazol-2-yl)(1-methylpiperidin-4-yloxy)methyl]phenyl}pent-4-ynyl)guanidine]",< 300 nM
